Reference: the supplement of paper PMC11208160

experiment: recombinant UMI read abundance after kanamycin selection (control-corrected) (log10(CPM+1)); higher = more efficient recombination; extreme values may be limits of the assay; sequences stand for … in AGTGCAGAGAAAATCGGCCAGTTTTCTCTGCCTGCAGTCCGCATGCCGTGGGACCCCTTGGGTTCTAACCTGTTGCCTAGATTTATGCAGCGGACTGCCTTTCTCCCAAAGTGATAAACCGG…AGGTTGGTTTCACT; site = the 11-nt donor
In short: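 Values are reported as log10(CPM+1), obtained by converting sequencing counts to CPM, averaging replicates and scaling by control-derived factors. The counts came from recombinant UMIs amplified by PCR across the donor–target junction. These UMIs came from a pooled Escherichia coli screen of donor and donor-binding-loop pairs for the IS621 bridge recombinase, plated with IPTG (0.07 mM) plus kanamycin or left unselected, in two replicates each.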
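Note: IS621 bridge recombinase in Escherichia coli cells against a fixed T5 target plasmid.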

| Sequence | recombinant UMI read abundance (log10) |
| --- | --- |
| CAATTCACATGGACCGGTTTTCCCGGTAATCCGTATTTGGG (site CAATTCACTCC) | 0.0754 |
| CAATTCCCATGGACCGGTTTTCCCGGTAATCCGTATTTGCA (site CAATTCCCTAG) | 0 |
| CAATTCCCATGGACCGGTTTTCCCGGTAATCCGTATTTGCA (site CAATTCCCTCG) | 0.00698 |
| CAATTCCCATGGACCGGTTTTCCCGGTAATCCGTATTTGCA (site CAATTCCCTGG) | 0 |
| CAATTCCCATGGACCGGTTTTCCCGGTAATCCGTATTTGCA (site CAATTCCCTTG) | 1.27 |
| CAATTCTCATGGACCGGTTTTCCCGGTAATCCGTATTTGCT (site CAATTCACTAG) | 0.75 |
| CAATTCTCATGGACCGGTTTTCCCGGTAATCCGTATTTGCT (site CAATTCCCTAG) | 0.421 |
| CAATTCTCATGGACCGGTTTTCCCGGTAATCCGTATTTGCT (site CAATTCGCTAG) | 0 |
| CAATTCTCATGGACCGGTTTTCCCGGTAATCCGTATTTGCT (site CAATTCTCTAG) | 2.19 |
| CACAACACATGGACCGGTTTTCCCGGTAATCCGTATTTGAC (site CACAACACTGT) | 2.79 |
| CACATGGCATGGACCGGTTTTCCCGGTAATCCGTATTTGGA (site CACATGGCTTC) | 0.785 |
| CACATGGCATGGACCGGTTTTCCCGGTAATCCGTATTTGGA (site CACCTGGCTTC) | 0.346 |
| CACATGGCATGGACCGGTTTTCCCGGTAATCCGTATTTGGA (site CACGTGGCTTC) | 0.414 |
| CACATGGCATGGACCGGTTTTCCCGGTAATCCGTATTTGGA (site CACTTGGCTTC) | 0.388 |
| CACATTGCATGGACCGGTTTTCCCGGTAATCCGTATTTGGT (site CACATTGCTAC) | 1.69 |
| CACCATGCATGGACCGGTTTTCCCGGTAATCCGTATTTGCG (site CACCATGCTCG) | 1.28 |
| CACCCCTCATGGACCGGTTTTCCCGGTAATCCGTATTTGCC (site CACACCTCTGG) | 0 |
| CACCCCTCATGGACCGGTTTTCCCGGTAATCCGTATTTGCC (site CACCCCTCTGG) | 2.71 |
| CACCCCTCATGGACCGGTTTTCCCGGTAATCCGTATTTGCC (site CACGCCTCTGG) | 0 |

| Sequence | recombinant UMI read abundance (log10) |
| --- | --- |
| CACCCCTCATGGACCGGTTTTCCCGGTAATCCGTATTTGCC (site CACTCCTCTGG) | 1.21 |
| CACCGATCATGGACCGGTTTTCCCGGTAATCCGTATTTGGC (site CACCGATCTGC) | 3.71 |
| CACCGCCCATGGACCGGTTTTCCCGGTAATCCGTATTTGTT (site CACAGCCCTAA) | 0.00423 |
| CACCGCCCATGGACCGGTTTTCCCGGTAATCCGTATTTGTT (site CACCGCCCTAA) | 0.033 |
| CACCGCCCATGGACCGGTTTTCCCGGTAATCCGTATTTGTT (site CACGGCCCTAA) | 0.0192 |
| CACCGCCCATGGACCGGTTTTCCCGGTAATCCGTATTTGTT (site CACTGCCCTAA) | 0.0163 |
| CACCGCGCATGGACCGGTTTTCCCGGTAATCCGTATTTGTC (site CACCGCGCTGA) | 2.33 |
| CACCGTACATGGACCGGTTTTCCCGGTAATCCGTATTTGAT (site CACCGTACTAT) | 1.95 |
| CACCGTACATGGACCGGTTTTCCCGGTAATCCGTATTTGCT (site CACCGTACTAG) | 2.18 |
| CACCGTACATGGACCGGTTTTCCCGGTAATCCGTATTTGCT (site CCCCGTACTAG) | 0.363 |
| CACCGTACATGGACCGGTTTTCCCGGTAATCCGTATTTGCT (site CGCCGTACTAG) | 0.614 |
| CACCGTACATGGACCGGTTTTCCCGGTAATCCGTATTTGCT (site CTCCGTACTAG) | 0.912 |
| CACCTGGCATGGACCGGTTTTCCCGGTAATCCGTATTTGGA (site CACATGGCTTC) | 0.0162 |
| CACCTGGCATGGACCGGTTTTCCCGGTAATCCGTATTTGGA (site CACCTGGCTTC) | 0.595 |
| CACCTGGCATGGACCGGTTTTCCCGGTAATCCGTATTTGGA (site CACGTGGCTTC) | 0.0355 |
| CACCTGGCATGGACCGGTTTTCCCGGTAATCCGTATTTGGA (site CACTTGGCTTC) | 0.0384 |
| CACGCCTCATGGACCGGTTTTCCCGGTAATCCGTATTTGAA (site CACGCCTCTTT) | 2.67 |
| CACGCCTCATGGACCGGTTTTCCCGGTAATCCGTATTTGGC (site CACGCCTCTGC) | 2.52 |
| CACGGCCCATGGACCGGTTTTCCCGGTAATCCGTATTTGTC (site CACGGCCCTAA) | 0.214 |

| Sequence | recombinant UMI read abundance (log10) |
| --- | --- |
| CACGGCCCATGGACCGGTTTTCCCGGTAATCCGTATTTGTC (site CACGGCCCTCA) | 0.166 |
| CACGGCCCATGGACCGGTTTTCCCGGTAATCCGTATTTGTC (site CACGGCCCTGA) | 1.59 |
| CACGGCCCATGGACCGGTTTTCCCGGTAATCCGTATTTGTC (site CACGGCCCTTA) | 0.469 |
| CACGGCTCATGGACCGGTTTTCCCGGTAATCCGTATTTGCC (site CACGGCTCTGG) | 3.3 |
| CACTACACATGGACCGGTTTTCCCGGTAATCCGTATTTGCT (site CACTACACTAG) | 2.44 |
| CACTACACATGGACCGGTTTTCCCGGTAATCCGTATTTGCT (site CCCTACACTAG) | 1.16 |
| CACTACACATGGACCGGTTTTCCCGGTAATCCGTATTTGCT (site CGCTACACTAG) | 0.729 |
| CACTACACATGGACCGGTTTTCCCGGTAATCCGTATTTGCT (site CTCTACACTAG) | 1.79 |
| CACTCCCCATGGACCGGTTTTCCCGGTAATCCGTATTTGCC (site CACTCCACTGG) | 0 |
| CACTCCCCATGGACCGGTTTTCCCGGTAATCCGTATTTGCC (site CACTCCCCTGG) | 1.23 |
| CACTCCCCATGGACCGGTTTTCCCGGTAATCCGTATTTGCC (site CACTCCGCTGG) | 0 |
| CACTCCCCATGGACCGGTTTTCCCGGTAATCCGTATTTGCC (site CACTCCTCTGG) | 1.43 |
| CACTCCTCATGGACCGGTTTTCCCGGTAATCCGTATTTGCT (site CACTCCTCTAG) | 3.09 |
| CACTCCTCATGGACCGGTTTTCCCGGTAATCCGTATTTGCT (site CACTCCTCTCG) | 0.583 |
| CACTCCTCATGGACCGGTTTTCCCGGTAATCCGTATTTGCT (site CACTCCTCTGG) | 2.08 |
| CACTCCTCATGGACCGGTTTTCCCGGTAATCCGTATTTGCT (site CACTCCTCTTG) | 1.69 |
| CACTCCTCATGGACCGGTTTTCCCGGTAATCCGTATTTGTC (site CACTCCTCTGA) | 3.16 |
| CACTCCTCATGGACCGGTTTTCCCGGTAATCCGTATTTGTC (site CACTCCTCTGC) | 1.7 |
| CACTCCTCATGGACCGGTTTTCCCGGTAATCCGTATTTGTC (site CACTCCTCTGG) | 2.55 |
